Literature values, collected in US20060275294A1, “METHOD OF PREVENTION AND TREATMENT OF AGING, AGE-RELATED DISORDERS AND/OR AGE-RELATED MANIFESTATIONS INCLUDING ATHEROSCLEROSIS, PERIPHERAL VASCULAR DISEASE, CORONARY ARTERY DISEASE, OSTEOPOROSIS, ARTHRITIS, TYPE 2 DIABETES, DEMENTIA, ALZHEIMERS DISEASE AND CANCER” (priority 2002, published 2006).
Read-outs that look alike come from different tables or passages of the source.

Columns and labels:
MM cells = conditions: cited from earlier work
[1] = system: rat vascular smooth muscle cells; conditions: cited from earlier work
[2] = system: rat primary astrocytes, microglia, and macrophages; conditions: cited from earlier work
Male Wistar rats [3] = conditions: administered to every diet group; cited from earlier work
[4] = system: human endothelial cells (EC); conditions: 100 ug/ml for DHA, EPA; 24 h supernatants, ELISA; cited from earlier work
[5] = system: human prostate carcinoma PC-3 cell line; conditions: cited from earlier work
IKKbeta = IKKbeta (Homo sapiens, UniProt O14920); conditions: cited from earlier work
IKKbeta, sequence (O14920 whole entry, species assumed): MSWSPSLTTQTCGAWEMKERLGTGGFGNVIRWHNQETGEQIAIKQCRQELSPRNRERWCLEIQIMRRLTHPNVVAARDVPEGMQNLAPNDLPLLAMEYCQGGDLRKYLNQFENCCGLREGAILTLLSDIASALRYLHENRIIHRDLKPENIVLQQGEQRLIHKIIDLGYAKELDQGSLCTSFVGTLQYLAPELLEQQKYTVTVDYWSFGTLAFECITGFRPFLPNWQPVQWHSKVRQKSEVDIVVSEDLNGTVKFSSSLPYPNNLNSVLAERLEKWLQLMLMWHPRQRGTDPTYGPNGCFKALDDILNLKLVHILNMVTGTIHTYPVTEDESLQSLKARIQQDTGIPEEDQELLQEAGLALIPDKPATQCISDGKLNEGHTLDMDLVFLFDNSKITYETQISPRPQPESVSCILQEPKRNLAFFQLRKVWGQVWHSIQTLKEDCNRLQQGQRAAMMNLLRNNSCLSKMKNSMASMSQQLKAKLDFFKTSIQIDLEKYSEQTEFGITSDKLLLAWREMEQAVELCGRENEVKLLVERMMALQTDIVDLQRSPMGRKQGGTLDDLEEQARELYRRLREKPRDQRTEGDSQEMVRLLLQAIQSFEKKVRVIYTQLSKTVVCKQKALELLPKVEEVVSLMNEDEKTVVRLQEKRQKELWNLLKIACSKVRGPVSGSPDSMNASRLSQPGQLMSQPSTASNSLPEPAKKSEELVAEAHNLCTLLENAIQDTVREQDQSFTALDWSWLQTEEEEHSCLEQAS

JB6 cell = conditions: cited from earlier work
[6] = system: rats with adjuvant arthritic chronic pain; conditions: cited from earlier work
[7] = system: cultured human astrocytes; conditions: cited from earlier work
[8] = system: aortic strips isolated from virgin and late pregnant Sprague-Dawley rats; conditions: cited from earlier work; for increase in active stress: 10^-5 M, endothelium-intact strips; for enhancement of Phe contraction: 1,000 pg/ml
Rat VSMC = conditions: 50 microM, IL-6 stimulated; cited from earlier work
STAT1 and STAT3 = conditions: cited from earlier work
Yorkshire swine = conditions: 20 mg/kg/day, 5 months, cited from earlier work
Wistar rats = conditions: cited from earlier work
[9] = in vivo, sc; cited from earlier work
mice = conditions: mouse, in vivo; cited from earlier work
Male Wistar rats [10] = conditions: rats; cited from earlier work
IL-6 = conditions: in vitro; cited from earlier work
[11] = system: in-patients with advanced (stage III) Huntington's disease; conditions: 6 months; cited from earlier work
[12] = system: IL-1 beta, IL-6, and TNF-alpha; conditions: cited from earlier work
[13] = system: three human pancreatic cancer cell types; conditions: cited from earlier work
[14] = system: subjects with type 2 diabetes associated with osteopenia; conditions: 200 mg/day for 2 weeks every 3 months, 1 yr; cited from earlier work
rats = conditions: synthetic diet for 21 days; cited from earlier work
[15] = molecular target: fAbeta(1-40) and fAbeta(1-42) (Homo sapiens, UniProt P05067); conditions: cited from earlier work; for fAbeta formation from Abeta(1-40) and Abeta(1-42): in vitro
fAbeta(1-40) and fAbeta(1-42), sequence (P05067 672-711 limits assumed): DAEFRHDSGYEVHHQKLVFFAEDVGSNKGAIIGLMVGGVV

Jurkat T cells = conditions: cited from earlier work
[16] = system: human microvascular endothelial cells (EC); conditions: cited from earlier work
STAT3 and ERK1/2 = conditions: cited from earlier work
myeloma cell lines = conditions: cited from earlier work
[17] = system: Primary adipocytes from pig subcutaneous adipose tissue; conditions: cited from earlier work

Molecule: COc1cc(/C=C/C(=O)CC(=O)/C=C/c2ccc(O)c(OC)c2)ccc1O [curcumin, diferuloylmethane]
- adhesion to bone marrow stromal cells, cytokine secretion, viability of cells (MM cells; ex vivo treatment of patient MM cells): decrease
- expression of NF-kappaB-regulated gene products incl. interleukin-6 (MM cells; human MM cells): down-regulated

Molecule: CCOc1nc2cccc(C(=O)O)c2n1Cc1ccc(-c2ccccc2-c2nnn[nH]2)cc1 [CV11974]
- expression of IL-6 mRNA induced by Ang II [1]: completely blocked

Molecule: O=C([O-])Cc1ccccc1.[Na+] [sodium phenylacetate]
- LPS-mediated activation of NF kappa B ([2]; astrocytes): Inhibition
- LPS-induced expression of TNF-alpha, IL-1beta, and IL-6 ([2]; rat primary astrocytes, microglia, macrophages): inhibited
- LPS and cytokine-mediated production of NO and expression of iNOS ([2]; rat primary astrocytes): inhibit

Molecule: COc1ccc2c(c1)c(CC(=O)O)c(C)n2C(=O)c1ccc(Cl)cc1 [Indomethacin]
- inflammatory process in adjuvant arthritis (Male Wistar rats [3]): strong inhibitory effect

Molecule: CCCCC/C=C\C/C=C\C/C=C\C/C=C\CCCC(=O)O [Arachidonic acid]
- production of IL-6 by unstimulated or stimulated EC [4]: ineffective

Molecule: C=C(C)[C@@H]1CC=C(C(=O)O)CC1 [perillic acid]
- IL-6- and OM-mediated effects (growth, resistance to etoposide and cisplatin) [5]: inhibited

Molecule: Oc1ccc(C=Cc2cc(O)cc(O)c2)cc1 [resveratrol]
- activation of IKKbeta (IKKbeta): inhibit or suppress
- cell transformation (JB6 cell): inhibited cell transformation

Molecule: CC(C)Oc1ccc2c(=O)c(-c3ccccc3)coc2c1 [ipriflavone, 7-isopropoxyisoflavone]
- analgesic effects ([6]; 100 mg/kg/day oral, 2 weeks after start): Analgesic effects were observed
- synovitis, periosteal new bone formation and bone destruction ([6]; 3 weeks, females): improved

Molecule: S=C=NCCc1ccccc1 [PEITC, phenethyl isothiocyanate]
- cell transformation (JB6 cell): inhibited cell transformation

Molecule: CN(C)CCCn1cc(C2=C(c3c[nH]c4ccccc34)C(=O)NC2=O)c2ccccc21 [GF109203X]
- PDBu-increased secretion of APPalpha [7]: blocked

Molecule: CNC[C@H](O)c1cccc(O)c1 [phenylephrine]
- increase in active stress ([8]; pregnant rats): 4.2±0.3 ×104 N/m2
- increase in active stress ([8]; virgin rats): 5.1±0.3 ×104 N/m2

Molecule: N#C/C(=C/c1ccc(O)c(O)c1)C(=O)NCc1ccccc1 [AG490]
- DNA synthesis (Rat VSMC): near complete inhibition
- STAT 3 activation and MCP-1 production (Rat VSMC): partially inhibited
- CuLDL-induced enhancement of STAT1 and STAT3 Tyr-phosphorylation and DNA-binding activity (STAT1 and STAT3): markedly prevented

Molecule: CC(O)(P(=O)(O)O)P(=O)(O)O [EHDP, ethane-1-hydroxy-1,1-diphosphonate]
- extent of lesions, ratio of intima to media (Yorkshire swine; vs HL diet only): significantly less
- lesion calcium (Yorkshire swine): significantly less
- ratio of lipid-rich necrotic debris area to area of media (Yorkshire swine): significantly smaller

Molecule: C[C@@H]1O[C@@H](OC[C@H]2O[C@@H](Oc3c(-c4ccc(O)c(O)c4)oc4cc(O)cc(O)c4c3=O)[C@H](O)[C@@H](O)[C@@H]2O)[C@H](O)[C@H](O)[C@H]1O [rutin, quercetin-3-O-glucose rhamnose]
- mean plasma concentration of active metabolites (quercetin and isorhamnetin) (Wistar rats; OVX+R rats, HPLC): 9.46 ± 1 µM
- uterotrophic activity (Wistar rats; rat, in vivo): devoid of any uterotrophic activity

Molecule: IL-6: interleukin-6 cytokine
- enhancement of Phe contraction ([8]; pregnant rats): 10.6±0.7 ×104 N/m2
- enhancement of Phe contraction ([8]; virgin rats): 7.5±0.4 ×104 N/m2
- adverse effects of subcutaneous administration [9]: cardiac arrhythmias, hepatotoxicity

Molecule: C=C(CC[C@]12O[C@H](C(=O)O)[C@@](O)(C(=O)O)[C@](C(=O)O)(O1)[C@H](OC(=O)/C=C/[C@@H](C)C[C@@H](C)CC)[C@H]2O)[C@@H](OC(C)=O)[C@H](C)Cc1ccccc1 [squalestatin]
- anti-inflammatory effect (mice): did not have any anti-inflammatory effect

Molecule: Oc1cc(O)c2c(c1)O[C@H](c1cc(O)c(O)c(O)c1)[C@H](O)C2 [Epigallocatechin]
- myocardial ischemia reperfusion injury (Male Wistar rats [10]): attenuates

Molecule: O=P(O)(O)O[C@H]1[C@H](OP(=O)(O)O)[C@@H](OP(=O)(O)O)[C@H](OP(=O)(O)O)[C@@H](OP(=O)(O)O)[C@H]1OP(=O)(O)O [InsP6, inositol hexaphosphate]
- cell transformation (JB6 cell): inhibited

Molecule: C[C@]12CC[C@@H]3c4ccc(O)cc4CC[C@H]3[C@@H]1CC[C@@H]2O [estradiol, 17beta-estradiol]
- IL-6 protein and mRNA production (IL-6): inhibits

Molecule: CC/C=C\C/C=C\C/C=C\C/C=C\C/C=C\CCCC(=O)OCC [ethyl-EPA, ethyl-ester of eicosapentaenoic acid]
- orofacial component of the Unified Huntington's Disease Rating Scale [11]: improved

Molecule: CO[C@H]1[C@@H](OC)C[C@H](C)[C@@H](OC)C2=CC(=O)C=C(NC(=O)/C(C)=C/C=C\[C@H](OC)[C@@H](OC(N)=O)/C(C)=C/[C@@H]1C)C2=O [herbimycin A]
- LPS-induced increase in IL-1 beta, IL-6, and TNF-alpha mRNA levels ([12]; 1.7 microM): completely or more than 80% blocked
- LPS activation of NF-kappa B [12]: reduced
- LPS-induced IL-6 protein synthesis and IL-6 bioactivity [12]: reduced to baseline levels
- IC50 ([13]; three cell lines, read-out: mean IC(50) proliferation): 1710 nM

Molecule: CC(O)(P(=O)(O)O)P(=O)(O)O [etidronate]
- change in intima-media thickness (mean±SE) [14]: −0.038±0.011 mm

Molecule: vitamin E
- endotoxin induced IL-6 concentration (rats): significantly lower

Molecule: Lavendustin
- inhibition of proliferation [13]: ineffective

Molecule: Cc1ccc(NC(=O)c2ccc(CN3CCN(C)CC3)cc2)cc1Nc1nccc(-c2cccnc2)n1 [Gleevec]
- inhibition of proliferation [13]: ineffective

Molecule: CC(Cc1ccc(O)c(O)c1)C(C)Cc1ccc(O)c(O)c1 (stereo not shown) [NDGA, Nordihydroguaiaretic acid]
- fAbeta formation from Abeta(1-40) and Abeta(1-42) [15]: inhibit

Molecule: O=C(OC[C@H]1O[C@@H](OC(=O)c2cc(O)c(O)c(OC(=O)c3cc(O)c(O)c(O)c3)c2)[C@H](OC(=O)c2cc(O)c(O)c(OC(=O)c3cc(O)c(O)c(O)c3)c2)[C@@H](OC(=O)c2cc(O)c(O)c(OC(=O)c3cc(O)c(O)c(O)c3)c2)[C@@H]1OC(=O)c1cc(O)c(O)c(OC(=O)c2cc(O)c(O)c(O)c2)c1)c1cc(O)c(O)c(OC(=O)c2cc(O)c(O)c(O)c2)c1 [TA, tannic acid]
- fAbeta formation from Abeta(1-40) and Abeta(1-42) [15]: dose-dependently inhibited
- EC50 ([15]; pH 7.5, 37 degrees C, read-out: effective concentrations (EC50) for formation, extension and destabilization of fAbetas): < 100 nM

Molecule: Oc1cc(O)c2c(c1)OC(c1ccc(O)c(O)c1)C(O)C2 (single isomer, unassigned; (+)) [CT, (+)-catechin]
- PMA-triggered increase in cell oxidants (Jurkat T cells; 1.7-17.2 microM, 24 h preincubation): prevented
- PMA-induced NF-kappaB binding activity and transactivation of IL-2 (Jurkat T cells; pretreatment): decreased

Molecule: O=P([O-])(O)C(NC1CCCCCC1)P(=O)([O-])O.[Na+].[Na+] [incadronate disodium]
- activation of NF-kappaB and AP-1 and up-regulation of VEGF mRNA ([16]; AGE-exposed EC): significantly prevented
- AGE-induced increase in DNA synthesis and tube formation [16]: completely inhibit

Molecule: Cn1cncc1[C@@](N)(c1ccc(Cl)cc1)c1ccc2c(c1)c(-c1cccc(Cl)c1)cc(=O)n2C [R115777]
- phosphorylation of STAT3 and ERK1/2 induced by IL-6 (STAT3 and ERK1/2; 10 and 5 microM): partially blocked
- phosphorylation of STAT3 and ERK1/2 induced by IL-6 (STAT3 and ERK1/2; 15 microM): totally blocked
- growth of three myeloma cell lines (myeloma cell lines): significant and dose-dependent growth inhibition
- apoptosis (myeloma cell lines; myeloma cells): significant and time-dependent apoptosis

Molecule: CCCC(=O)O[C@@H]1[C@@H](C)[C@@]2(O)[C@@H](C=C(CO)C[C@]3(O)C(=O)C(C)=C[C@@H]23)[C@@H]2C(C)(C)[C@]12OC(=O)CCC [PDBu, Phorbol 12, 13-dibutyrate]
- increase of secretion of APPalpha over control [7]: 2-3 fold

B1: adiponectin: adiponectin (protein, UniProt Q15848 19-244, looked up)
Adiponectin: ETTTQGPGVLLPLPKGACTGWMAGIPGHPGHNGAPGRDGRDGTPGEKGEKGDPGLIGPKGDIGETGVPGAEGPRGFPGIQGRKGEPGEGAYVYRSAFSVGLETYVTIPNMPIRFTKIFYNQQNHYDGSTGKFHCNIPGLYYFAYHITVYMKDVKVSLFKKDKAMLFTYDQYQENNVDQASGSVLLHLEVGDQVWLQVYGEGERNGLYADNDNDSTFTGFLLYHDTN
- NF-kappaB activation and induction of IL-6 expression by LPS ([17]; 30 microg/ml, LPS 10 microg/ml): suppressed
- PPARgamma2 mRNA [17]: upregulation
